Measured values reported in patent US10532082B2, “SOCS1-derived peptide for use in chronic complications of diabetes” (Fundació Hospital Universitari Vall d'Hebron-Institut de …, priority 2014, dated 2020).
Where no end group is shown, it is not given here. [ ]: non-standard residue; d: D form. lysine‑palmitate = lysine-palmitate bound at the N-terminal end; pY = N[C@@H](Cc1ccc(OP(=O)(O)O)cc1)C(=O)O

Columns and labels:
RAW264.7 macrophages [1] = test: Macrophage migration chemotaxis assay; format: cell-based, murine; details: chemotaxis assays
Protocol: (§1) RAW264.7 macrophages and vascular smooth muscle cells (VSMC) cultured in a medium with 10% fetal bovine serum were used. The cells were synchronized (24 hours without serum), pre-incubated for 90 minutes with different peptide concentrations (miS1 or the control thereof, 50-150 μg/mL) and stimulated with cytokines (IFNγ […]). STAT activation was analyzed by means of Western blot for phosphorylated STAT1/STAT3 isoforms. JAK/STAT pathway-dependent chemokine (CCL2) expression was determined by means of ELISA. Cell viability was analyzed by MTT colorimetric assay and macrophage migration was analyzed by chemotaxis assay.

STAT3 [2] = test: Renal phosphorylated STAT3 immunodetection in diabetic mice; format: in vivo; details: STZ apoE mice, i.p. 8 weeks; kidney sections, vs vehicle
Protocol: (§2) Apolipoprotein E (apoE)-deficient male mice of 8 weeks of age were made diabetic through streptozotocin injection (125 mg/kg weight in 10 mM citrate, pH 4.5, two consecutive days). After 2 weeks, animals with glycemia greater than 350 mg/dL were randomly distributed in two groups (n=9 animals per group): treated animals (miS1 peptide: 65 μg/day, 200 μL, intraperitoneally, every 2 days for 8 weeks) and controls (vehicle). The weight and glycemia (colorimetric assay) were controlled throughout the study period.

diabetic mice (db/db) = test: Retinal glutamate metabolism (GLAST immunofluorescence, glutamate by UPLC); format: in vivo; details: eye drops 15 days
Protocol: 8-week old diabetic mice (db/db) received the miS1 peptide in the form of eye drops (5 μL drops in each eye; 10 mg/mL; twice a day for 15 days; n=7 mice). Diabetic mice treated with the non-functional peptide Mut (n=7), treated with vehicle and non-diabetic mice (db/+) were used as controls. The eye drops were directly administered on the upper surface of the cornea of each eye using a micropipette. The weight and glycemia (colorimetric assay) were controlled throughout the study period. On day 15, the drop with the miS1 peptide or vehicle was administered about two hours before autopsy. […]
The glutamate metabolism was evaluated in order to investigate the mechanisms through which the miS1 peptide produces neuroprotection. The glutamate concentration was determined by means of ultra-high performance liquid chromatography (UPLC) (Acquity-UPLC, Waters) MassTrak amino acid system). The GLAST (Glutamate/Aspartate transporter) was evaluated by means of immunofluorescence.
The paraffin sections were deparaffinized in xylene and rehydrated in a gradual series of ethanol. […] The GLAST immunofluorescence was quantified by means of laser confocal microscopy (Olympus FluoView™ FV1000 confocal microscope, Hamburg, Germany) using the ImageJ software.

[3] = test system: streptozotocin diabetic apoE-deficient mice; test: Metabolic and renal data in mice with type 1 diabetes, intraperitoneal treatment; format: in vivo; details: STZ apoE mice, 65 μg/day i.p. every 2 days, 8 weeks
Protocol: as §2
At the end of the study, the anesthetized animals were perfused with saline and sacrificed, processing the tissues immediately. In renal cortex (paraffin sections, 5 μm) the glomerular and tubulointerstitial morphology was studied by means of PAS and Masson trichrome staining and the lesions were evaluated in a double-blind and semi-quantitative manner in a scale of 0-3. Renal fibrosis was determined by means of Picro-Sirius red staining and the infiltrating inflammatory cells (F4/80+ macrophages and CD3+ T-lymphocytes) by immunohistochemistry. In the aorta, the root/arch zone (serial cryosections of 8 μm from the valves to an extension of 1000 μm) was stained with Oil-red-O/hematoxylin and the area of the atherosclerotic lesion was quantified (Metamorph program). Plaque stability was assessed by collagen fiber staining with Picro-Sirius red and α-actin immunofluorescence. The inflammatory component was determined by means of immunohistochemistry for monocyte/macrophages (Moma2). The Image Pro-Plus program was used for quantifying positive stainings. The biochemical parameters in serum (glycated hemoglobin, cholesterol and creatinine) and in urine (albumin and creatinine) were determined by means of conventional commercial kits.

RAW264.7 macrophages [4] = test: Cytokine-induced CCL2 production in macrophages (ELISA); format: cell-based, murine; details: pre-incubation with peptide, IFNγ and IL-6
Protocol: as §1

STAT1 [5] = test: STAT1 activation in cytokine-stimulated VSMC; format: cell-based, mouse; details: IFNγ and IL-6 stimulation, immunofluorescence images
STAT3 [6] = test: STAT3 activation in cytokine-stimulated VSMC; format: cell-based, mouse; details: IFNγ and IL-6 stimulation, immunofluorescence images
STAT1 [7] = test: Renal phosphorylated STAT1 immunodetection in diabetic mice; format: in vivo; details: STZ apoE mice, i.p. 8 weeks; kidney sections, vs vehicle
Protocol: as §2

In the case of “miS1: SEQ ID NO 1 DTHFRTFRSHSDYRRI, kinase inhibitory region of murine SOCS1, bound to lysine-palmitate at the N-terminal end, tyrosine phosphorylated ({lysine‑palmitate}-DTHFRTFRSHSD[pY]RRI)”, the macrophage migration (RAW264.7 macrophages [1]) was “anti-migratory effect”, the “renal STAT3 activation” value (STAT3 [2]) was “reduction” and the intraretinal glutamate levels (diabetic mice (db/db); UPLC) was “reduced but without reaching statistical significance”. The “GLAST content in retina” value (diabetic mice (db/db); immunofluorescence) was “downregulation was prevented”, the “weight loss caused by chronic diabetes” value [3] was “less pronounced” and the ALT ([3]; end of study) was 97 ± 17 U/L. It also gave an AST ([3]; end of study) of 176 ± 20 U/L, a Blood glucose ([3]; end of study) of 549 ± 29 mg/dL and a GHbA1c ([3]; end of study) of 503 ± 76 µg/mL. The HDL cholesterol ([3]; end of study) was 11 ± 1 mg/dL, the LDL cholesterol ([3]; end of study) was 597 ± 61 mg/dL and the Total cholesterol ([3]; end of study) was 611 ± 59 mg/dL. It also gave a Triglycerides ([3]; end of study) of 89 ± 23 mg/dL, a Weight ([3]; end of study) of 21.9 ± 0.6 g and a Urine albumin-creatinine ratio ([3]; p < 0.01 vs control) of 16.2 ± 61.1 µg/µmol. The Serum creatinine ([3]; p < 0.02 vs control) was 0.24 ± 0.04 mg/dL, the Kidney-body mass ratio ([3]; p < 0.05 vs control) was 16.4 ± 1.3 mg/g and the “decrease in albumin levels (renal function)” value ([3]; vs vehicle) was 28%. The “reduction of cytokine-induced CCL2 production” value (RAW264.7 macrophages [4]) was 30-40%, the STAT1 activation (STAT1 [5]) was “prevented” and the STAT3 activation (STAT3 [6]) was “prevented”. The “renal STAT1 activation” value (STAT1 [7]) was “reduction”.
